# Assay results: US20190031618A1, “BENZIMIDAZOLE DERIVATIVES USEFUL AS CB-1 INVERSE AGONISTS” (Janssen Pharmaceutica NV, priority 2015, published 2019)
# Tested on: DIO mice
# Assay: Chronic DIO Mouse: food intake, body weight, plasma insulin
# Type: in vivo
# Conditions: for Mean Body Weight (Std Err) / Plasma Insulin (Std Err): DIO mice; for Plasma Insulin (Std Err): chronic study; for Mean Daily Food Intake: chronic DIO mouse, (Std Err)
# Experimental: Male 14-20-week old diet-induced obese mice are ordered from Taconic. Mice were started on a 60% fat diet (D12492, Research Diets, New Brunswick, N.J.) at 6 weeks of age. Mice are single-housed.
# DIO mice received vehicle, test compound (@ 1, 3, 10, and 30 mg/kg) daily for 26 days. At the end of the experiment, the mice were euthanized and blood and tissues were collected.
# Body weight and food weight (food intake) were monitored daily for days 1-5 and twice weekly thereafter.
# Blood glucose was measured from the tail vein with a Lifescan glucometer. Plasma insulin was measured with an ELISA or HTRF kit (Cisbio). Plasma parameters were measured with an Olympus clinical chemistry analyzer.
structure (smiles),measurement,setting,value
O=C(O)c1cccc(CN2CCC(n3c(C4CC4)nc4ccc(C(c5ccc(Cl)cc5)c5ccc(Cl)cc5)cc43)CC2)c1 [Example 148],Mean Body Weight (Std Err),"1 mg/kg daily, Day 0",42.03 (0.80) Grams
same,Mean Body Weight (Std Err),"1 mg/kg daily, Day 1",42.63 (0.79) Grams
same,Mean Body Weight (Std Err),"1 mg/kg daily, Day 2",42.56 (0.86) Grams
same,Mean Body Weight (Std Err),"1 mg/kg daily, Day 3",42.46 (0.91) Grams
same,Mean Body Weight (Std Err),"1 mg/kg daily, Day 4",42.26 (0.87) Grams
same,Mean Body Weight (Std Err),"1 mg/kg daily, Day 5",42.31 (0.81) Grams
same,Mean Body Weight (Std Err),"1 mg/kg daily, Day 8",41.62 (0.79) Grams
same,Mean Body Weight (Std Err),"1 mg/kg daily, Day 11",41.91 (0.77) Grams
same,Mean Body Weight (Std Err),"1 mg/kg daily, Day 15",42.67 (1.02) Grams
same,Mean Body Weight (Std Err),"1 mg/kg daily, Day 18",40.54 (1.23) Grams
same,Mean Body Weight (Std Err),"1 mg/kg daily, Day 24",41.11 (1.30) Grams
same,Plasma Insulin (Std Err),1 mg/kg daily,5.92 (0.92) ng/mL
same,Mean Body Weight (Std Err),"3 mg/kg daily, Day 0",42.28 (0.49) Grams
same,Mean Body Weight (Std Err),"3 mg/kg daily, Day 1",42.94 (0.45) Grams
same,Mean Body Weight (Std Err),"3 mg/kg daily, Day 2",42.12 (0.43) Grams
same,Mean Body Weight (Std Err),"3 mg/kg daily, Day 3",41.85 (0.47) Grams
same,Mean Body Weight (Std Err),"3 mg/kg daily, Day 4",41.42 (0.44) Grams
same,Mean Body Weight (Std Err),"3 mg/kg daily, Day 5",41.3 (0.36) Grams
same,Mean Body Weight (Std Err),"3 mg/kg daily, Day 8",39.78 (0.29) Grams
same,Mean Body Weight (Std Err),"3 mg/kg daily, Day 11",39.1 (0.41) Grams
same,Mean Body Weight (Std Err),"3 mg/kg daily, Day 15",40.43 (0.40) Grams
same,Mean Body Weight (Std Err),"3 mg/kg daily, Day 18",39.84 (0.53) Grams
same,Mean Body Weight (Std Err),"3 mg/kg daily, Day 24",40.48 (0.48) Grams
same,Plasma Insulin (Std Err),3 mg/kg daily,4.74 (0.83) ng/mL
same,Mean Body Weight (Std Err),"10 mg/kg daily, Day 0",42.09 (0.85) Grams
same,Mean Body Weight (Std Err),"10 mg/kg daily, Day 1",42.69 (0.74) Grams
same,Mean Body Weight (Std Err),"10 mg/kg daily, Day 2",40.46 (0.66) Grams
same,Mean Body Weight (Std Err),"10 mg/kg daily, Day 3",39.85 (0.68) Grams
same,Mean Body Weight (Std Err),"10 mg/kg daily, Day 4",39.44 (0.70) Grams
same,Mean Body Weight (Std Err),"10 mg/kg daily, Day 5",38.78 (0.70) Grams
same,Mean Body Weight (Std Err),"10 mg/kg daily, Day 8",37.4 (0.67) Grams
same,Mean Body Weight (Std Err),"10 mg/kg daily, Day 11",36.99 (0.78) Grams
same,Mean Body Weight (Std Err),"10 mg/kg daily, Day 15",37.33 (0.84) Grams
same,Mean Body Weight (Std Err),"10 mg/kg daily, Day 18",37.02 (0.88) Grams
same,Mean Body Weight (Std Err),"10 mg/kg daily, Day 24",36.42 (1.25) Grams
same,Plasma Insulin (Std Err),10 mg/kg daily,2.20 (0.13) ng/mL
same,Mean Body Weight (Std Err),"30 mg/kg daily, Day 0",42.46 (0.58) Grams
same,Mean Body Weight (Std Err),"30 mg/kg daily, Day 1",43.13 (0.69) Grams
same,Mean Body Weight (Std Err),"30 mg/kg daily, Day 2",39.64 (0.68) Grams
same,Mean Body Weight (Std Err),"30 mg/kg daily, Day 3",38.53 (0.66) Grams
same,Mean Body Weight (Std Err),"30 mg/kg daily, Day 4",37.46 (0.75) Grams
same,Mean Body Weight (Std Err),"30 mg/kg daily, Day 5",36.67 (0.75) Grams
same,Mean Body Weight (Std Err),"30 mg/kg daily, Day 8",34.95 (0.78) Grams
same,Mean Body Weight (Std Err),"30 mg/kg daily, Day 11",33.79 (0.87) Grams
same,Mean Body Weight (Std Err),"30 mg/kg daily, Day 15",34.19 (0.64) Grams
same,Mean Body Weight (Std Err),"30 mg/kg daily, Day 18",32.47 (0.92) Grams
same,Mean Body Weight (Std Err),"30 mg/kg daily, Day 24",32.86 (0.91) Grams
same,Plasma Insulin (Std Err),30 mg/kg daily,2.85 (0.27) ng/mL
same,Mean Daily Food Intake,"1 mg/kg daily, Day 2",2.3 (0.1) Grams
same,Mean Daily Food Intake,"1 mg/kg daily, Day 3",2.3 (0.1) Grams
same,Mean Daily Food Intake,"1 mg/kg daily, Day 4",2.2 (0.1) Grams
same,Mean Daily Food Intake,"1 mg/kg daily, Day 5",2.4 (0.1) Grams
same,Mean Daily Food Intake,"1 mg/kg daily, Day 8",2.1 (0.1) Grams
same,Mean Daily Food Intake,"1 mg/kg daily, Day 11",2.3 (0.1) Grams
same,Mean Daily Food Intake,"1 mg/kg daily, Day 15",2.4 (0.1) Grams
same,Mean Daily Food Intake,"1 mg/kg daily, Day 18",1.6 (0.3) Grams
same,Mean Daily Food Intake,"1 mg/kg daily, Day 24",2.1 (0.2) Grams
same,Mean Daily Food Intake,"3 mg/kg daily, Day 2",2.0 (0.2) Grams
same,Mean Daily Food Intake,"3 mg/kg daily, Day 3",2.0 (0.1) Grams
same,Mean Daily Food Intake,"3 mg/kg daily, Day 4",1.9 (0.2) Grams
same,Mean Daily Food Intake,"3 mg/kg daily, Day 5",1.8 (0.2) Grams
same,Mean Daily Food Intake,"3 mg/kg daily, Day 8",1.7 (0.1) Grams
same,Mean Daily Food Intake,"3 mg/kg daily, Day 11",1.8 (0.1) Grams
same,Mean Daily Food Intake,"3 mg/kg daily, Day 15",2.5 (0.1) Grams
